Test [1] has as its system HeLa. Description: MTT assay, HeLa. The format is cell-based. To be noted: for IC50: Homo sapiens, MTT assay, HeLa cervix carcinoma, (±s) standard deviation; for Selectivity Index HeLa: IC50 for normal cell line (HDF)/IC50 for HeLa.
In test [2] the test system is KB. Description: MTT assay, KB. The note with it: for IC50: Homo sapiens, MTT assay, KB nasopharynx carcinoma, (±s) standard deviation; for Selectivity Index KB: IC50 for normal cell line (HDF)/IC50 for KB. The format is cell-based.
The subject of test [3] is MCF-7. Description: MTT assay, MCF-7. Type of test: cell-based. To be noted: for IC50: Homo sapiens, MCF7, MTT assay, MCF-7 breast carcinoma, (±s) standard deviation; for Selectivity Index MCF-7: IC50 for normal cell line (HDF)/IC50 for MCF-7.
The subject of the next test is A-549. Description: MTT assay, A-549. The format is cell-based. The note with it: for IC50: Homo sapiens, A549, MTT assay, A-549 lung carcinoma, (±s) standard deviation; for Selectivity Index A-549: IC50 for normal cell line (HDF)/IC50 for A-549.
Test [4] relates to HDF (normal fibroblast cell line). Description: MTT assay, HDF. To be noted: MTT assay, HDF normal fibroblast cell line, (±s) standard deviation. The format is cell-based, human.
For test [5], the system named is HeLa, KB, MCF-7, A-549 and HDF cell lines. Description: MTT assay, statements over several tested cell lines. Type of test: cell-based.
Test [6] has as its system U-87MG, MCF-7, and HeLa cancer cell lines. Description: Apoptosis assay, all cancer cell lines. Type of test: cell-based. An excerpt: The necrosis process induced by all the tested compounds was very small.
Test [7] concerns HeLa. To be noted: most active derivatives published earlier; read-out: Cell Line, IC50 [ μM] HeLa; cited from earlier work.
In test [8] the test system is KB. The note with it: most active derivatives published earlier; read-out: Cell Line, IC50 [ μM] KB; cited from earlier work.
Test [9] has as its system MCF-7. To be noted: most active derivatives published earlier; read-out: Cell Line, IC50 [ μM] MCF-7; cited from earlier work.
Where [10] appears, read: summary over the tested cell lines, read-out: IC50 values for the tested cell lines (range or summary).
The mark [11] stands for this setting: one approximate value or range for the four cancer cell lines, apart from HDF, read-out: IC50 for HeLa, KB, MCF-7, and A-549 cancer cell lines.

The source of these data is PMC10819243 (Pharmaceutics, 2024).

Read-outs that look alike come from different tables or passages of the source.

Consider `COC(=O)[C@]12CCC(C)(C)CC1C1=CC(=O)C3[C@@]4(C)CC/C(=N\OC(=O)c5cc([N+](=O)[O-])cc([N+](=O)[O-])c5)C(C)(C)C4CC[C@@]3(C)[C@]1(C)CC2` (stereo partly shown) [Compound 6g, 3-(3′,5′-Dinitro)benzoxyimino-11-oxoolean-12-en-28-oic acid methyl ester], for which the concentration for half-maximal inhibition (IC50) was 6.11 µM in the test on HeLa [1]; 8.98 µM in the test with KB [2]; 6.62 µM in the test on MCF-7 [3]; 5.39 µM in the test with A-549; 7.27 µM in test [4] (Homo sapiens, Fibroblast); 5.39 to 8.98 µM in test [5] (setting [10]). The “Selectivity Index HeLa” value in the test on HeLa [1] was 1.19. Besides, the “Selectivity Index KB” value with KB [2] worked out at 0.81. Also, the “Selectivity Index MCF-7” value in the test on MCF-7 [3] came out at 1.10. In addition, in the test with A-549, the “Selectivity Index A-549” value turned out to be 1.34. Besides, the “increase in induction of apoptosis” value in test [6] (0.1 µg/mL) came out at 1.7 fold; in test [6] (1.0 µg/mL) it was 2.4 fold; in [6] (10 µg/mL) it was 2.9 fold.

Turning to `CCC(=O)ON=C1C[C@@H]2[C@@]3(C)CC[C@H](OC(C)=O)C(C)(C)[C@@H]3CC[C@@]2(C)[C@]2(C)CC[C@@]3(C(=O)OC)CCC(C)(C)C[C@H]3[C@@H]12` [8d [22]], the IC50 was 1.87 µM in the test on HeLa [7], 0.72 µM in the test with KB [8] and 2.13 µM with MCF-7 [9].

In the case of `CC1(C)CC[C@]2(C(=O)N3CCOCC3)CC[C@]3(C)C(=CCC4[C@@]5(C)CC/C(=N\OC(=O)c6cc([N+](=O)[O-])cc([N+](=O)[O-])c6)C(C)(C)C5CC[C@]43C)C2C1` (stereo partly shown) [Compound 7g, 3-(3′,5′-Dinitro)benzoxyiminoolean-12-en-28-oic acid morpholide], the IC50 was 6.24 µM in the test with HeLa [1]; 6.01 µM in the test with KB [2]; 7.27 µM with MCF-7 [3]; 6.52 µM with A-549; 9.16 µM in test [4] (Homo sapiens, Fibroblast); 4.19 to 8.98 µM in [5] (setting [10]). The “Selectivity Index HeLa” value with HeLa [1] was 1.47. In addition, the “Selectivity Index KB” value with KB [2] is 1.52. For the same molecule, the “Selectivity Index MCF-7” value in the test on MCF-7 [3] stood at 1.26. For the same molecule, the “Selectivity Index A-549” value with A-549 was found to be 1.40. Also, the “increase in induction of apoptosis” value in test [6] (0.1 µg/mL) came to 2.3 fold; in test [6] (1.0 µg/mL) it was 2.6 fold; in test [6] (10 µg/mL), 3.8 fold.

Turning to `COC(=O)C12CCC(C)(C)CC1C1C(=NOC(=O)c3ccccc3[N+](=O)[O-])CC3C4(C)CCC(OC(C)=O)C(C)(C)C4CCC3(C)C1(C)CC2` (stereo not shown) [8e [22]], the results for the IC50 in the test on HeLa [7], in the test on KB [8] and in the test with MCF-7 [9] were 9.84 µM, over 10 µM and 9.28 µM, respectively.

With `COC(=O)[C@]12CCC(C)(C)CC1C1=CC(=O)C3[C@@]4(C)CC/C(=N\OC(=O)c5cccc([N+](=O)[O-])c5)C(C)(C)C4CC[C@@]3(C)[C@]1(C)CC2` (stereo partly shown) [Compound 6e, 3-(3′-Nitro)benzoxyimino-11-oxoolean-12-en-28-oic acid methyl ester], the IC50 with HeLa [1] is 71.2 µM; in the test with KB [2], 70 µM; with MCF-7 [3], 75 µM; with A-549, 74 µM; in test [4] (Homo sapiens, Fibroblast), about 97 µM; in test [4] it was 97 µM. The half-inhibitory concentration (IC50) in [5] (setting [11]) fell in the range of 70 to 74 µM. In addition, in the test with HeLa [1], the “Selectivity Index HeLa” value worked out at 1.36. Moreover, the “Selectivity Index KB” value in the test with KB [2] was found to be 1.39. Moreover, in the test with MCF-7 [3], the “Selectivity Index MCF-7” value amounted to 1.29. Also, the “Selectivity Index A-549” value in the test with A-549 was found to be 1.31.

Turning to `COC(=O)[C@]12CCC(C)(C)CC1C1=CCC3[C@@]4(C)CC/C(=N\OC(=O)c5cccc([N+](=O)[O-])c5)C(C)(C)C4CC[C@@]3(C)[C@]1(C)CC2` (stereo partly shown) [Compound 5e], the IC50 in the test with HeLa [1] is 20.1 µM; in the test on KB [2] it was 23.9 µM; with MCF-7 [3], 21.8 µM; in the test with A-549, 21.1 µM; in test [4] (Homo sapiens, Fibroblast), 38 µM; in [5] (setting [10]), 20.1 to 38 µM. For the same molecule, the “Selectivity Index HeLa” value with HeLa [1] stood at 1.88. In addition, the “Selectivity Index KB” value with KB [2] is reported as 1.59. The “Selectivity Index MCF-7” value with MCF-7 [3] worked out at 1.74. In addition, the “Selectivity Index A-549” value with A-549 amounted to 1.80.

As to `COC(=O)[C@]12CCC(C)(C)CC1C1=CCC3[C@@]4(C)CC/C(=N\OC(=O)c5ccccc5)C(C)(C)C4CC[C@@]3(C)[C@]1(C)CC2` (stereo partly shown) [Compound 5d, 3-Benzoxyiminoolean-12-en-28-oic acid methyl ester], the IC50 in the test with HeLa [1] was 84.9 µM; in the test on KB [2] it was 83.2 µM; in the test with MCF-7 [3], 83.3 µM; in the test on A-549 it was 73.9 µM; in test [4] (Homo sapiens, Fibroblast), 113 µM; in test [5] (setting [10]), 73.9 to 113 µM. For the same molecule, the “Selectivity Index HeLa” value with HeLa [1] is given as 1.33. Besides, the “Selectivity Index KB” value with KB [2] turned out to be 1.36. Also, the “Selectivity Index MCF-7” value with MCF-7 [3] was 1.36. Moreover, in the test on A-549, the “Selectivity Index A-549” value came out at 1.53.

Turning to `COC(=O)[C@]12CCC(C)(C)CC1C1=CC(=O)C3[C@@]4(C)CC/C(=N\OC(=O)c5ccccc5)C(C)(C)C4CC[C@@]3(C)[C@]1(C)CC2` (stereo partly shown) [Compound 6d, 3-Benzoxyimino-11-oxoolean-12-en-28-oic acid methyl ester], the IC50 with HeLa [1] is 28.4 µM; in the test with KB [2], 27.2 µM; with MCF-7 [3], 27.5 µM; in the test on A-549, 27.8 µM; in test [4] (Homo sapiens, Fibroblast), about 42 µM; in [4], 42 µM. In addition, the IC50 in test [5] (setting [11]) was about 27 µM. For the same molecule, the “Selectivity Index HeLa” value with HeLa [1] was found to be 1.48. In addition, the “Selectivity Index KB” value with KB [2] turned out to be 1.54. Besides, in the test with MCF-7 [3], the “Selectivity Index MCF-7” value was 1.53. In the test on A-549, the “Selectivity Index A-549” value came out at 1.51.

With `COC(=O)C12CCC(C)(C)CC1C1C(=NOC(=O)CBr)CC3C4(C)CCC(OC(C)=O)C(C)(C)C4CCC3(C)C1(C)CC2` (stereo not shown) [8c [22]], the IC50 with HeLa [7] is 4.41 µM; with KB [8] it was 4.9 µM; in the test with MCF-7 [9] it was 3.76 µM.

Regarding `COC(=O)C12CCC(C)(C)CC1C1C(=NOC(=O)CCl)CC3C4(C)CCC(OC(C)=O)C(C)(C)C4CCC3(C)C1(C)CC2` (stereo not shown) [8b [22]], the IC50 in the test with HeLa [7] is 9.19 µM; in the test on KB [8], 9.42 µM; with MCF-7 [9], 7.26 µM.

On to `CC1(C)CC[C@]2(C(=O)N3CCOCC3)CC[C@]3(C)C(=CCC4[C@@]5(C)CC/C(=N\OC(=O)CCl)C(C)(C)C5CC[C@]43C)C2C1` (stereo partly shown) [Compound 7b, 3-Chloroacetoxyiminoolean12-en-28-oic acid morpholide], for which the concentration for half-maximal inhibition (IC50) in the test on HeLa [1] was 19.2 µM; with KB [2], 19.8 µM; with MCF-7 [3] it was 15.6 µM; in the test on A-549, 19.3 µM; in [4] (Homo sapiens, Fibroblast), 39.1 µM; in [5] (setting [10]), 15 to 40 µM. In addition, the “Selectivity Index HeLa” value in the test on HeLa [1] is listed as 2.03. Further, the “Selectivity Index KB” value in the test on KB [2] is recorded as 1.97. Besides, the “Selectivity Index MCF-7” value in the test on MCF-7 [3] was 2.50. Also, the “Selectivity Index A-549” value with A-549 is 2.02.

As for `CC1(C)CC[C@]2(C(=O)N3CCOCC3)CC[C@]3(C)C(=CCC4[C@@]5(C)CC/C(=N\OC(=O)c6ccc([N+](=O)[O-])cc6)C(C)(C)C5CC[C@]43C)C2C1` (stereo partly shown) [Compound 7f, 3-(4′-Nitro)benzoxyiminoolean-12-en-28-oic acid morpholide], the 50% inhibitory concentration (IC50) in the test on HeLa [1] was 60 µM; in the test on KB [2], 61.5 µM; in the test on MCF-7 [3], 57.2 µM; in the test with A-549 it was 62.9 µM; in test [4] (Homo sapiens, Fibroblast), 85.1 µM; in [5] (setting [10]), 40 to 66 µM. In the test with HeLa [1], the “Selectivity Index HeLa” value is recorded as 1.42. The “Selectivity Index KB” value with KB [2] was determined as 1.38. Further, in the test with MCF-7 [3], the “Selectivity Index MCF-7” value is reported as 1.49. Further, in the test with A-549, the “Selectivity Index A-549” value was found to be 1.35.
